From patent EP0906335B1, “EBV TYPE B CTL EPITOPES” (THE COUNCIL OF THE QUEENSLAND INSTITUTE OF MEDICAL RESEARCH, priority 1996, dated 2008)

Test system: autologous PHA blasts
Assay: CTL assay of type B specific culture B5 against overlapping EBNA-6B peptides (epitope mapping)
Format: cell-based
Details: peptides preincubated with autologous PHA blasts; Fig. 3a, 3b
Experimental: Assessment of peptide specific activity.
The type B specific culture B5 recognised the peptide corresponding to EBNA-6B residues 210-229 (peptide 12 of the EBNA-6B set) when assayed against individual 20-mer overlapping peptides preincubated with autologous PHA blasts (Fig. 3a). […] The corresponding peptide from the type A overlapping sequence was not recognised by this culture, thus confirming the type B specificity of these T cells.

Row | Substance | recognition by type B specific culture B5
1 | peptide 12: 20-mer overlapping peptide corresponding to EBNA-6B residues 210-229 | recognised

Test system: autologous PHA-blasts
Assay: CTL assay of culture A3 against overlapping EBNA-6B peptides (epitope mapping)
Details: peptides on autologous PHA-blasts; Fig. 4a, 4b

Row | Substance | recognition by culture A3
2 | peptide 19: 20-mer overlapping peptide of EBNA-6B, residues 280-299 | reactive

Test system: HLA
Assay: not given
Details: Table 4, from the cited reference; cited from earlier work

Row | Substance | HLA Restriction
3 | CLGGLLTMV | HLA A2
4 | DEPASTEPVHDQLL | HLA A11
5 | DTPLIPLTIF | HLA B51/A2
6 | EENLLDFVRF | HLA B44
7 | FLRGRAYGL | HLA B8
8 | KEHVIQNAF | HLA B44
9 | LPGPQVTAVLLHEES | HLA A11
10 | NPTQAPVIQLVHAVY | HLA A11
11 | QPRAPIRPI | HLA B7
12 | RLRAEAGVK | HLA A3
13 | RPPIFIRRL | HLA B7
14 | RRRWRRLTV | HLA B27
15 | RYSIFFDY | HLA 24
16 | SVRDRLARL | HLA A2
17 | TSLYNLRRGTALA | HLA DR1
18 | TVFYNIPPNIPL | HLA DQ2
19 | VEITPYKPTW | HLA B44
20 | VSFIEFVGW | HLA B57
